For the assay, the target named is T1, human pancreatic GK (human glucokinase variant 1, GST-fused protein) (Homo sapiens, UniProt P35557).
T1 construct: made in house; host or cells: Escherichia coli (such as BL21 or JM109)
T1 sequence (P35557 1-465): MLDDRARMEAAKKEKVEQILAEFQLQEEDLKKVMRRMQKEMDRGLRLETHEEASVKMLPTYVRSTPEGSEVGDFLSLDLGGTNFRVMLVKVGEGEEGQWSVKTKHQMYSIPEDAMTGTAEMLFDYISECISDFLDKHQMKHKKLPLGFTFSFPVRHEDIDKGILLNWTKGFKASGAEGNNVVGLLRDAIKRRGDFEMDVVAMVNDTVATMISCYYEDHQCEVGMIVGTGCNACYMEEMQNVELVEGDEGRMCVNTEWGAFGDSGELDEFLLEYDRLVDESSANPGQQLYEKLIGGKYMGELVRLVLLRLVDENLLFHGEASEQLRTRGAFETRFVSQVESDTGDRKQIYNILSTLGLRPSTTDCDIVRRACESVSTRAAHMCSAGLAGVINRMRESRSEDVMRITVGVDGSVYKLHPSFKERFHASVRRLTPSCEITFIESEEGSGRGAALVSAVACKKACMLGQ
As to the kind of experiment: GK activity test (GK activation rate). To be noted: test compound 1 μM; glucose 5 mM; 30 min at room temperature; absorbance at 340 nm with test compound / without test compound. The class given is biochemical. Here is the method:
cDNA encoding human pancreatic GK polypeptide (GenBank Accession No. NM_000162, human glucokinase variant 1) was cloned from a human cDNA library by polymerase chain reaction (PCR), and introduced into a glutathione S-transferase (GST)-fused protein expression vector (GEX4T, GE Healthcare Bioscience). The vector was introduced into Escherichia coli (such as BL21 or JM109, Invitrogen), and the transformed E. coli was cultured overnight at 37° C. followed by recovery of the cells. After freezing and thawing the recovered cells, the cells were suspended in phosphate buffer containing Triton-X at a final concentration of 1% followed by disrupting the cells with an ultrasonic homogenizer. The supernatant obtained by low-speed centrifugation treatment of the homogenate (10,000×g, 30 minutes) was further subjected to high-speed centrifugation (100,000×g, 10 minutes) followed by recovering the supernatant and purifying the fused protein using a GST fused protein purification system (Bulk GST Purification Module, GE Healthcare Bioscience). The GK fused protein was divided into smaller aliquots and stored at −80° C.
GK activity was measured using the GK purified in (1) above. More specifically, an enzyme solution was prepared by adding the purified GK of (1) above and glucose-6-phosphate dehydrogenase (Sigma) to solution 1 of a glucose assay kit (D-Glucose UV Method, Roche Diagnostics). The enzyme solution, a test compound diluent and glucose (final concentration: 5 mM) were mixed in a 96-well ELISA plate, and allowed to react for 30 minutes at room temperature. Following completion of the reaction, absorbance at a wavelength of 340 nm was measured using SpectraMax Plus (Molecular Probe). Furthermore, unreacted (when glucose was not added) absorbance was used for the background.
GK activation rates were indicated with values represented by the following numerical formula: (absorbance after reacting for 30 minutes when test compound added)/(absorbance after reacting for 30 minutes when test compound not added).

Regarding `COC[C@H](C)Oc1cc(Oc2ccc(S(C)(=O)=O)nc2)cc(-c2ccc(C3=N[C@H](CO)[C@H](C)O3)[nH]2)c1` [Example 91, {(4R,5S)-2-[5-(3-[(1S)-2-Methoxy-1-methylethoxy]-5-{[6-(methylsulfonyl)pyridin-3-yl]oxy}phenyl)-1H-pyrrol-2-yl]-5-methyl-4,5-dihydro-1,3-oxazol-4-yl}methanol], the “GK Activation Rate” value amounted to 2.6. For the molecule `COC[C@H](C)Oc1cc(Oc2ccc(S(C)(=O)=O)cc2)cc(-c2ccc(C3=NCC(CO)O3)[nH]2)c1` (stereo partly drawn) [Example 29, [2-(5-{3-[(1S)-2-Methoxy-1-methylethoxy]-5-[4-(methylsulfonyl)phenoxy]phenyl}-1H-pyrrol-2-yl)-4,5-dihydro-1,3-oxazol-5-yl]methanol], the “GK Activation Rate” value is recorded as 2.0. The value for `CNS(=O)(=O)c1ccc(Oc2cc(O[C@@H](C)CO)cc(-c3ccc(C4=NC[C@H](C)O4)[nH]3)c2)cn1` [Example 122, 5-(3-[(1S)-2-Hydroxy-1-methylethoxy]-5-{5-[(5S)-5-methyl-4,5-dihydro-1,3-oxazol-2-yl]-1H-pyrrol-2-yl}phenoxy)-N-methylpyridine-2-sulfonamide] was 2.5.

Regarding `C[C@H]1CN=C(c2ccc(-c3cc(Oc4ccc(S(C)(=O)=O)cc4)cc(O[C@@H](C)CO)c3)[nH]2)O1` [Example 32, (2S)-2-(3-{5-[(5S)-5-Methyl-4,5-dihydro-1,3-oxazol-2-yl]-1H-pyrrol-2-yl}-5-[4-(methylsulfonyl)phenoxy]phenoxy)propan-1-ol], the “GK Activation Rate” value amounted to 2.0.

On to `COC[C@H](C)Oc1cc(Oc2cnc(S(C)(=O)=O)cn2)cc(-c2ccc(C3=N[C@H]([C@H](C)O)CO3)[nH]2)c1` [Example 112, (1S)-1-{(4S)-2-[5-(3-{[(25)-1-Methoxypropan-2-yl]oxy}-5-{[5-(methylsulfonyl)pyrazin-2-yl]oxy}phenyl)-1H-pyrrol-2-yl]-4,5-dihydro-1,3-oxazol-4-yl}ethanol], for which the “GK Activation Rate” value turned out to be 2.4.

With `C[C@@H]1OC(c2ccc(-c3cc(Oc4ccc(S(C)(=O)=O)nc4)cc(O[C@@H](C)CO)c3)[nH]2)=N[C@@H]1C` [Example 88, (2S)-2-(3-{5-[(4R,5S)-4,5-Dimethyl-4,5-dihydro-1,3-oxazol-2-yl]-1H-pyrrol-2-yl}-5-{[6-(methylsulfonyl)pyridin-3-yl]oxy}phenoxy)propan-1-ol], the “GK Activation Rate” value is given as 2.4. For the molecule `COC[C@H](C)Oc1cc(Oc2ccc(S(C)(=O)=O)nc2)cc(-c2ccc(-c3nccs3)[nH]2)c1` [Example 65, 5-{3-[(1S)-2-Methoxy-1-methylethoxy]-5-[5-(1,3-thiazol-2-yl)-1H-pyrrol-2-yl]phenoxy}-2-(methylsulfonyl)pyridine], the “GK Activation Rate” value is 2.4.

These data come from patent US8415359B2, “Phenylpyrrole derivative” (Daiichi Sankyo Company, Limited, priority 2008, dated 2013).
